The source made the active and inactive calls. The rule behind the calls is not given here.
Columns and labels:
[1] = system: Variola virus; assay: Antiviral activity against Variola virus BSH74-sol infected in african green monkey BSC-40 cells at 0.05 to 0.5 uM by IHC staining-based comet tail reduction assay; assay type: functional, organism-based
[2] = system: Monkeypox virus; assay: Antiviral activity against Monkeypox virus V78-I-3945 infected in african green monkey BSC-40 cells at 0.05 to 0.5 uM by IHC staining-based comet tail reduction assay; assay type: functional, organism-based
[3] = system: Monkeypox virus; assay: Antiviral activity against Monkeypox virus V81-I-179 infected in african green monkey BSC-40 cells at 0.05 to 0.5 uM by IHC staining-based comet tail reduction assay; assay type: functional, organism-based
[4] = system: Monkeypox virus; assay: Antiviral activity against Monkeypox virus V78-I-3945 infected in african green monkey BSC-40 cells at 0.015 uM by IHC staining-based comet tail reduction assay; assay type: functional, organism-based
[5] = system: Monkeypox virus; assay: Antiviral activity against Monkeypox virus V77-I-823 infected in african green monkey BSC-40 cells at 0.015 uM by IHC staining-based comet tail reduction assay; assay type: functional, organism-based
[6] = system: Variola virus; assay: Antiviral activity against Variola virus BRZ66-39 infected in african green monkey BSC-40 cells at 0.005 uM by IHC staining-based comet tail reduction assay; assay type: functional, organism-based
[7] = system: Variola virus; assay: Antiviral activity against Variola virus NEP73-175 infected in african green monkey BSC-40 cells assessed as reduction in viral plaque formation at 0.015 uM uM by IHC staining-based plaque reduction assay; assay type: functional
[8] = system: Monkeypox virus; assay: Antiviral activity against Monkeypox virus V81-I-179 infected in african green monkey BSC-40 cells assessed as reduction in viral plaque formation at 0.015 uM uM by IHC staining-based plaque reduction assay; assay type: functional
[9] = system: Variola virus; assay: Antiviral activity against Variola virus SOM77-ali infected in african green monkey BSC-40 cells at 0.005 uM by IHC staining-based comet tail reduction assay; assay type: functional, organism-based
[10] = system: Monkeypox virus; assay: Antiviral activity against Monkeypox virus V78-I-3945 infected in african green monkey BSC-40 cells at 0.005 uM by IHC staining-based comet tail reduction assay; assay type: functional, organism-based
[11] = system: Monkeypox virus; assay: Antiviral activity against Monkeypox virus V77-I-823 infected in african green monkey BSC-40 cells at 0.005 uM by IHC staining-based comet tail reduction assay; assay type: functional, organism-based
[12] = system: Monkeypox virus; assay: Antiviral activity against Monkeypox virus V1979-I-005 infected in african green monkey BSC-40 cells assessed as reduction in viral plaque formation at 0.015 uM uM by IHC staining-based plaque reduction assay; assay type: functional
[13] = system: Variola virus; assay: Antiviral activity against Variola virus BRZ66-39 infected in african green monkey BSC-40 cells at 0.005 uM uM by IHC staining-based plaque reduction assay; assay type: functional, organism-based
[14] = system: Variola virus; assay: Antiviral activity against Variola virus SLN68-258 infected in african green monkey BSC-40 cells at 0.005 uM uM by IHC staining-based plaque reduction assay; assay type: functional, organism-based
[15] = system: Variola virus; assay: Antiviral activity against Variola virus SUD47-juba infected in african green monkey BSC-40 cells at 0.005 uM uM by IHC staining-based plaque reduction assay; assay type: functional, organism-based
[16] = system: Monkeypox virus; assay: Antiviral activity against Monkeypox virus V1979-I-005 infected in african green monkey BSC-40 cells at 0.005 uM by IHC staining-based comet tail reduction assay; assay type: functional, organism-based
[17] = system: Variola virus; assay: Antiviral activity against Variola virus SLN68-258 infected in african green monkey BSC-40 cells at 0.05 to 5 uM assessed as reduction in virus-induced cytopathic effect; assay type: functional, organism-based
[18] = system: Variola virus; assay: Antiviral activity against Variola virus NEP73-175 infected in african green monkey BSC-40 cells at 0.05 to 5 uM assessed as reduction in virus-induced cytopathic effect; assay type: functional, organism-based
[19] = system: Monkeypox virus; assay: Antiviral activity against Monkeypox virus V77-I-823 infected in african green monkey BSC-40 cells assessed as reduction in virus-induced cytopathic effect at 0.05 to 5 uM; assay type: functional, organism-based
[20] = system: Variola virus; assay: Antiviral activity against Variola virus SLN68-258 infected in african green monkey BSC-40 cells at 0.015 uM assessed as reduction in virus-induced cytopathic effect; assay type: functional, organism-based
[21] = system: Variola virus; assay: Antiviral activity against Variola virus SUD47-juba infected in african green monkey BSC-40 cells at 0.015 uM assessed as reduction in virus-induced cytopathic effect; assay type: functional, organism-based
[22] = system: Variola virus; assay: Antiviral activity against Variola virus NEP73-175 infected in african green monkey BSC-40 cells at 0.015 uM assessed as reduction in virus-induced cytopathic effect; assay type: functional, organism-based
[23] = system: Monkeypox virus; assay: Antiviral activity against Monkeypox virus V81-I-179 infected in african green monkey BSC-40 cells assessed as reduction in virus-induced cytopathic effect at 0.015 uM; assay type: functional, organism-based
[24] = system: Monkeypox virus; assay: Antiviral activity against Monkeypox virus 2003-USA-039 infected in african green monkey BSC-40 cells assessed as reduction in virus-induced cytopathic effect at 0.015 uM; assay type: functional, organism-based
[25] = system: Variola virus; assay: Antiviral activity against Variola virus BRZ66-39 infected in african green monkey BSC-40 cells at 0.005 uM assessed as reduction in virus-induced cytopathic effect; assay type: functional, organism-based
[26] = system: Monkeypox virus; assay: Antiviral activity against Monkeypox virus 2003-USA-039 infected in african green monkey BSC-40 cells assessed as reduction in virus-induced cytopathic effect at 0.005 uM; assay type: functional, organism-based
[27] = system: Monkeypox virus; assay: Antiviral activity against Monkeypox virus V77-I-823 infected in african green monkey BSC-40 cells assessed as reduction in virus-induced cytopathic effect at 0.005 uM; assay type: functional, organism-based
[28] = system: Variola virus; assay: Antiviral activity against Variola virus BRZ66-39 infected in african green monkey BSC-40 cells at 0.05 to 0.5 uM by IHC staining-based plaque reduction assay; assay type: functional, organism-based
[29] = system: Variola virus; assay: Antiviral activity against Variola virus SUD47-juba infected in african green monkey BSC-40 cells at 0.05 to 0.5 uM by IHC staining-based plaque reduction assay; assay type: functional, organism-based
[30] = system: Variola virus; assay: Antiviral activity against Variola virus BSH74-sol infected in african green monkey BSC-40 cells at 0.05 to 0.5 uM by IHC staining-based plaque reduction assay; assay type: functional, organism-based
[31] = system: Variola virus; assay: Antiviral activity against Variola virus NEP73-175 infected in african green monkey BSC-40 cells at 0.05 to 0.5 uM by IHC staining-based plaque reduction assay; assay type: functional, organism-based
[32] = system: Variola virus; assay: Antiviral activity against Variola virus SOM77-ali infected in african green monkey BSC-40 cells at 0.05 to 0.5 uM by IHC staining-based plaque reduction assay; assay type: functional, organism-based
[33] = system: Monkeypox virus; assay: Antiviral activity against Monkeypox virus V78-I-3945 infected in african green monkey BSC-40 cells at 0.05 to 0.5 uM by IHC staining-based plaque reduction assay; assay type: functional, organism-based
[34] = system: Variola virus; assay: Antiviral activity against Variola virus SLN68-258 infected in african green monkey BSC-40 cells assessed as reduction in viral plaque formation at 0.015 uM uM by IHC staining-based plaque reduction assay; assay type: functional
[35] = system: Variola virus; assay: microbe, parasite or virus in culture; conditions: BRZ66-39, BSC-40
[36] = system: Variola virus; assay: microbe, parasite or virus in culture; conditions: SLN68-258, BSC-40
[37] = system: Variola virus; assay: microbe, parasite or virus in culture; conditions: SUD47-juba, BSC-40

O=C(NN1C(=O)[C@@H]2[C@@H]3C=C[C@@H]([C@H]4C[C@@H]34)[C@@H]2C1=O)c1ccc(C(F)(F)F)cc1 [TECOVIRIMAT]
Activity [1]: Active
Activity [2]: Active
Activity [3]: Active
Activity [4]: Active
Activity [5]: Active
Activity [6]: inactive
inhibition (INH) [7]: 50%
inhibition (INH) [8]: 50%
Activity [9]: inactive
Activity [10]: inactive
Activity [11]: inactive
inhibition (INH) [12]: 50%
Activity [13]: inactive
Activity [14]: inactive
Activity [15]: inactive
Activity [16]: inactive
Activity [17]: Active
Activity [18]: Active
Activity [19]: Active
Activity [20]: Active
Activity [21]: Active
Activity [22]: Active
Activity [23]: Active
Activity [24]: Active
Activity [25]: inactive
Activity [26]: inactive
Activity [27]: inactive
Activity [28]: Active
Activity [29]: Active
Activity [30]: Active
Activity [31]: Active
Activity [32]: Active
Activity [33]: Active
inhibition (INH) [34]: 50%
EC50 [35]: 67 nM
EC50 [36]: 37 nM
EC50 [37]: 19 nM

From ChEMBL document CHEMBL1629642, “In vitro efficacy of ST246 against smallpox and monkeypox” (Antimicrob Agents Chemother, 2009)
